Measured values as given in patent US20220363662A1, “COMPOUNDS AS LXR AGONISTS” (Integral Biosciences Privated Limited, priority 2021, published 2022).
pEC50, pIC50: −log10 of the molar value.

Experiments:
MDA-MB-231 = experiment: Cell viability assay (resazurin) in MDA-MB-231; format: cell-based; conditions: Homo sapiens, 96 hr exposure, read-out: MDA_MB-231 Cell IC50
Description: (§1) HepG2 (ATCC® HB-8065™), hepatocellular carcinoma, A549 (ATCC® CCL-185™), lung epithelial carcinoma, MCF7 (ATCC® HTB-22™), mammary gland epithelial carcinoma, MDA-MB-231 (ATCC® HTB-26™), TNBC, MiaPaCa-2 (ATCC® CRL-1420™) & Panc-1 (ATCC® CRL-1469™), pancreatic epithelial carcinoma, HCT116 (ATCC® CCL-247™), colon epithelial carcinoma and U87MG (ATCC® HTB-14™), brain epithelial carcinoma cell lines respectively were seeded in the respective medium (DMEM, Cat #10569044 with 10% FBS, Cat #16000044; Gibco for HepG2, A549, MCF7, MDA-MB-231, MiaPaCa-2, Panc-1, HCT116 and MEM, Cat #11095080 with 10% FBS for U87MG). Cells were allowed to grow at 37° C. for 24 hr in 5% CO2 (culture conditions) in a Nuaire incubator (humidified). Serially diluted compounds (100 μl) were added to the culture plate 24 hr later and the cultures were further incubated in culture conditions for 96 hr. Experiment was terminated at the completion of 96 hr exposure to the drug by replacing the medium with 100 μl of 1 mM of resazurin (R7017; Sigma) prepared in culture medium and the plates were further incubated in culture conditions for 4 hr. Fluorescence was then measured using a multimodal plate reader (Biotek Synergy Neo) at an excitation wavelength of 535 nm and emission wavelength of 590 nm to obtain relative fluorescence units. Data analysis was done by subtracting the background fluorescence (only medium blank) value from each reading and then normalizing with the vehicle control (DMSO treated cells) to obtain percent survival/proliferation. Percent survival at different doses was used to calculate IC50 by fitting the curve to the “four-parameter variable slope logistic model” using Prism Graph Pad.

LXR alpha = target: T1, LXR alpha (Homo sapiens, UniProt Q13133); experiment: LXR alpha agonist assay (Lanthascreen TR-FRET); format: biochemical; conditions: LXR alpha-LBD 2.5 nM, read-out: LXR-α EC50
T1 construct: 5 μL of 4×LXR alpha-LBD was added to each well (final concentration 2.5 nM); purchased Thermofisher PV4655
T1 sequence (Q13133 209-447 limits assumed): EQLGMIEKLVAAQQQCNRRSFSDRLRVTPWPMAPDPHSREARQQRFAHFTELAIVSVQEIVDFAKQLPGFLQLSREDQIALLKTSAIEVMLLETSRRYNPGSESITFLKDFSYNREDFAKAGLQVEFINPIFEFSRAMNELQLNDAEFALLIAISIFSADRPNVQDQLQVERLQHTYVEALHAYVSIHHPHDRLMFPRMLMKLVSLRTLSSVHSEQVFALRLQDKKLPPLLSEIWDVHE
Description: EC50 values of compounds against LXR alpha were determined at Integral BioSciences (India) using Lanthascreen TR-FRET (Thermofisher, Cat #PV4655). Assay was performed in a 20 μL final volume in a Black 384-well plate (Corning, Cat #4511). Dose response curve for the compounds were prepared in duplicates with starting concentration at 30 μM and a three-fold titration was performed. The reaction buffer consisted of TR-FRET Coregulator Buffer H. To the compound dilution, 5 μL of 4×LXR alpha-LBD was added to each well (final concentration 2.5 nM). An equal volume (5 μL) containing 4×Fl-D22/Tb-anti GST antibody (final concentration 250 nM/10 nM) was added to initiate the enzyme reaction and the reaction was incubated for 60 min at 22° C. after which the plates were read using BioTek Plate reader for TR-FRET every hour up to 4 hours.
Analysis was done using the standard curve by non-linear regression, variable slope inhibitor curve fits (Graph-Pad Prism) and EC50's of compounds were determined wherever possible.

HepG2 = experiment: Cell viability assay (resazurin) in HepG2; format: cell-based; conditions: Homo sapiens, 96 hr exposure
Description: as §1

A549 = experiment: Cell viability assay (resazurin) in A549; format: cell-based; conditions: Homo sapiens, 96 hr exposure
Description: as §1

LXR beta = target: T2, LXR beta (Homo sapiens, UniProt P55055); experiment: LXR beta agonist assay (Lanthascreen TR-FRET); format: biochemical; conditions: LXR beta-LBD 5 nM, read-out: LXR-β EC50
T2 construct: 5 μL of 4×LXR beta-LBD was added to each well (final concentration 5 nM); purchased Thermofisher PV4658
T2 sequence (P55055 222-460 limits assumed): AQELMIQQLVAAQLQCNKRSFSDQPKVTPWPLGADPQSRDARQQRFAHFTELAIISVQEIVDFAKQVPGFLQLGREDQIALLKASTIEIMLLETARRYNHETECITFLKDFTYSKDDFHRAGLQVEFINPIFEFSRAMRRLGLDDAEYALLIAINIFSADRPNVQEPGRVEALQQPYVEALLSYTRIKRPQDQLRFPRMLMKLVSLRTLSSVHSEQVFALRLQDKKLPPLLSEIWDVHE
Procedure, shortened: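 TR-FRET coactivator recruitment: 5 nM LXR beta-LBD with 100 nM Fl-D22 peptide and 10 nM Tb-anti-GST antibody (final) in Coregulator Buffer G, 60 min at 22° C, read hourly up to 4 hours. Duplicate three-fold titrations from 30 μM; EC50 by variable-slope nonlinear regression.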

THP1 = experiment: Cell viability assay in THP1; format: cell-based; conditions: Homo sapiens, THP-1
HCT116 = experiment: Cell viability assay (resazurin) in HCT116; format: cell-based; conditions: Homo sapiens, HCT-116; 96 hr exposure
Description: as §1

MCF7 = experiment: Cell viability assay (resazurin) in MCF7; format: cell-based; conditions: Homo sapiens, 96 hr exposure
Description: as §1

Row | Compound | pIC50 (MDA-MB-231) | pEC50 (LXR alpha) | pIC50 (HepG2) | pIC50 (A549) | pEC50 (LXR beta) | pIC50 (THP1) | pIC50 (HCT116) | pIC50 (MCF7)
1 | CN(C)C(=O)c1ccc(N2CCN(C3CC4(C3)CN(C(=O)[C@](O)(c3ccccc3)C(F)(F)F)C4)CC2)cc1Cl (single isomer, unassigned) [Compound 1.17] | < 4.52 | 4.97 | 4.65 | < 4.52 | 6.81 | – | – | –
2 | CN(C)C(=O)c1ccc(N2CCN(C3CC4(C3)CN(C(=O)[C@@](O)(c3ccccc3)C(F)(F)F)C4)CC2)cc1Cl (single isomer, unassigned) [Compound 1.18] | – | 5.22 | – | – | 5.80 | – | – | –
3 | CC(C)[C@](O)(C(=O)N1CCC2(CC1)CN(C1CCN(c3ccc(C(=O)N(C)C)c(Cl)c3)CC1)C2)C(F)(F)F (single isomer, unassigned) [Compound 1.74] | – | 5.90 | < 4.52 | – | 6.12 | – | – | –
4 | CN(C)C(=O)c1ccc(N2CCN(C3CC4(C3)CN(S(=O)(=O)c3ccccc3C(F)(F)F)C4)CC2)cc1Cl [Compound 1.5, 2-chloro-N,N-dimethyl-4-(4-(2-(2-(trifluoromethyl)phenylsulfonyl)-2-azaspiro[3.3]heptan-6-yl)piperazin-1-yl)benzamide] | – | < 4.52 | – | – | 5.95 | – | – | –
5 | CN(C)C(=O)c1ccc(-c2nnc(C3=CCN(S(=O)(=O)c4ccccc4Cl)CC3)s2)cc1Cl [Compound 1.12, 2-chloro-4-(5-(1-(2-chlorophenylsulfonyl)-1,2,3,6-tetrahydropyridin-4-yl)-1,3,4-thiadiazol-2-yl)-N,N-dimethylbenzamide] | 4.82 | 5.39 | 4.84 | < 4.52 | 6.68 | – | – | –
6 | O=C(N1CCC(C2CCN(c3cc(Cl)c4c(=O)[nH]ccc4c3)CC2)CC1)[C@](O)(c1ccccc1)C(F)(F)F [Compound 1.19, (R)-8-chloro-6-(1′-(3,3,3-trifluoro-2-hydroxy-2-phenylpropanoyl)-4,4′-bipiperidin-1-yl)isoquinolin-1(2H)-one] | 5.14 | 6.39 | 5.43 | 5.16 | 6.35 | – | – | –
7 | O=C(N1CCC(N2CCN(c3cc(Cl)c4c(=O)[nH]ccc4c3)CC2)CC1)C1(c2ccccc2)CCC1 [Compound 1.29, 8-chloro-6-(4-(1-(1-phenylcyclobutanecarbonyl)piperidin-4-yl)piperazin-1-yl)isoquinolin-1(2H)-one] | – | 5.06 | – | – | 6.04 | – | – | –
8 | CN(C)C(=O)c1ccc(NC2CN(C3CCN(C(=O)C(C)(C)c4ccccc4)CC3)C2)cc1Cl [Compound 1.41, 2-chloro-N,N-dimethyl-4-(1-(1-(2-methyl-2-phenylpropanoyl)piperidin-4-yl)azetidin-3-ylamino)benzamide] | < 4.52 | – | – | < 4.52 | 5.24 | < 4.52 | < 4.52 | –
9 | CN(C)C(=O)c1ccc(NC2CN(C3CCN(C(=O)C4(c5cccc(F)c5)CCC4)CC3)C2)cc1Cl [Compound 1.42, 2-chloro-4-(1-(1-(1-(3-fluorophenyl)cyclobutanecarbonyl)piperidin-4-yl)azetidin-3-ylamino)-N,N-dimethylbenzamide] | 4.79 | – | – | < 4.52 | 5.51 | < 4.52 | 4.82 | –
10 | CC(C)C(O)(C(=O)N1CCC(N2CC(Nc3ccc(C(=O)N(C)C)c(Cl)c3)C2)CC1)C(F)(F)F (centres unmarked) [Compound 1.43, 2-chloro-4-(1-(1-(2-hydroxy-3-methyl-2-(trifluoromethyl)butanoyl)piperidin-4-yl)azetidin-3-ylamino)-N,N-dimethylbenzamide] | < 4.52 | – | – | < 4.52 | 5.33 | < 4.52 | < 4.52 | –
11 | CN(C)C(=O)c1ccc(N[C@H]2CCN(C3CCN(C(=O)[C@](O)(c4ccccc4)C(F)(F)F)CC3)C2)cc1Cl [Compound 1.46, 2-chloro-N,N-dimethyl-4-((S)-1-(1-((R)-3,3,3-trifluoro-2-hydroxy-2-phenylpropanoyl)piperidin-4-yl)pyrrolidin-3-ylamino)benzamide] | < 4.52 | – | – | < 4.52 | < 4.52 | < 4.52 | < 4.52 | –
12 | CN(C)C(=O)c1ccc(NC2CCN(C3CCN(C(=O)[C@](O)(c4ccccc4)C(F)(F)F)CC3)CC2)cc1Cl [Compound 1.47, (R)-2-chloro-N,N-dimethyl-4-(1′-(3,3,3-trifluoro-2-hydroxy-2-phenylpropanoyl)-1,4′-bipiperidin-4-ylamino)benzamide] | < 4.52 | – | – | < 4.52 | 5.54 | < 4.52 | < 4.52 | –
13 | CN(C)C(=O)c1ccc(NC2CN(C3CCN(C(=O)C4(c5ccc(F)cc5)CCC4)CC3)C2)cc1Cl [Compound 1.49, 2-chloro-4-(1-(1-(1-(4-fluorophenyl)cyclobutanecarbonyl)piperidin-4-yl)azetidin-3-ylamino)-N,N-dimethylbenzamide] | 4.83 | – | – | 4.82 | 4.80 | < 4.52 | 4.75 | –
14 | CN(C)C(=O)c1ccc(-c2nnc(N3CCC4(CCN(S(=O)(=O)c5ccccc5Cl)CC4)C3)s2)cc1Cl [Compound 1.50, 2-chloro-4-(5-(8-(2-chlorophenylsulfonyl)-2,8-diazaspiro[4.5]decan-2-yl)-1,3,4-thiadiazol-2-yl)-N,N-dimethylbenzamide] | 4.77 | – | 4.62 | 4.84 | – | 4.84 | 4.81 | 4.84
15 | CN(C)C(=O)c1ccc(-c2nnc(N3CC4(CCN(S(=O)(=O)c5ccccc5Cl)CC4)C3)s2)cc1Cl [Compound 1.51, 2-chloro-4-(5-(7-(2-chlorophenylsulfonyl)-2,7-diazaspiro [3.5]nonan-2-yl)-1,3,4-thiadiazol-2-yl)-N,N-dimethylbenzamide] | 5.26 | – | < 4.54 | 5.35 | – | 5.23 | 5.35 | 5.38
16 | CN(C)C(=O)c1ccc(OC2CN(C3CCN(C(=O)[C@](O)(c4ccccc4)C(F)(F)F)CC3)C2)cc1Cl [Compound 1.77, (R)-2-chloro-N,N-dimethyl-4-(1-(1-(3,3,3-trifluoro-2-hydroxy-2-phenylpropanoyl)piperidin-4-yl)azetidin-3-yloxy)benzamide] | – | 4.71 | < 4.52 | – | 5.82 | – | – | –
17 | CC1CC(N2CC(Nc3ccc(C(=O)N(C)C)c(Cl)c3)C2)CCN1S(=O)(=O)c1ccccc1Cl (centres unmarked) [Compound 1.84, 2-chloro-4-(1-(1-(2-chlorophenylsulfonyl)-2-methylpiperidin-4-yl)azetidin-3-ylamino)-N,N-dimethylbenzamide] | – | 4.79 | – | – | 5.94 | – | – | –
